From US10246466B2, “Diaryl macrocycles as modulators of protein kinases” (TP THERAPEUTICS, INC., priority 2014, dated 2019)

Assays:
[1] = target: ALK (Homo sapiens (Human), UniProt Q9UM73); test: KINOMEscan kinase binding assay (DiscoveRx)
Protocol: (§1) For most assays, kinase-tagged T7 phage strains were prepared in an E. coli host derived from the BL21 strain. E. coli were grown to log-phase and infected with T7 phage and incubated with shaking at 32° C. until lysis. The lysates were centrifuged and filtered to remove cell debris. The remaining kinases were produced in HEK-293 cells and subsequently tagged with DNA for qPCR detection. […] The liganded beads were blocked with excess biotin and washed with blocking buffer (SeaBlock (Pierce), 1% BSA, 0.05% Tween 20, 1 mM DTT) to remove unbound ligand and to reduce nonspecific binding. […] All reactions were performed in polystyrene 96-well plates in a final volume of 0.135 mL. […] The kinase concentration in the eluates was measured by qPCR.

[2] = target: ROS1 (Homo sapiens (Human), UniProt P08922); test: KINOMEscan kinase binding assay (DiscoveRx)
Protocol: (§2) Kinase binding assays were performed at DiscoveRx using the general KINOMEscan Kd Protocol (Fabian, M. A. et al., “A small molecule-kinase interaction map for clinical kinase inhibitors,” Nat. Biotechnol. 2005, 23(3):329-36). For most assays, kinase-tagged T7 phage strains were prepared in an E. coli host derived from the BL21 strain. E. coli were grown to log-phase and infected with T7 phage and incubated with shaking at 32° C. until lysis. The lysates were centrifuged and filtered to remove cell debris. The remaining kinases were produced in HEK-293 cells and subsequently tagged with DNA for qPCR detection. Streptavidin-coated magnetic beads were treated with biotinylated small molecule ligands for 30 minutes at room temperature to generate affinity resins for kinase assays. The liganded beads were blocked with excess biotin and washed with blocking buffer (SeaBlock (Pierce), 1% BSA, 0.05% Tween 20, 1 mM DTT) to remove unbound ligand and to reduce nonspecific binding. […] All reactions were performed in polystyrene 96-well plates in a final volume of 0.135 mL. […] The beads were then re-suspended in elution buffer (1×PBS, 0.05% Tween 20, 0.5 μM non-biotinylated affinity ligand) and incubated at room temperature with shaking for 30 minutes. The kinase concentration in the eluates was measured by qPCR.

[3] = tested on: Colorectal cell line KM12 (harboring endogenous TPM3-TRKA fusion gene); test: KM12 cell proliferation assay (CellTiter-Glo); format: cell-based; settings: Homo sapiens, 72 hours incubation, read-out: KM 12 cell prolif. IC50
Protocol: (§3) Colorectal cell lines KM 12 (harboring endogenous TPM3-TRKA fusion gene) cells were cultured in DMEM medium, supplemented with 10% fetal bovine serum and 100 U/mL of penicillin/streptomycin. 5000 cells were seeded in 384 well white plate for 24 hours before compounds treatment. Cell proliferation was measured using CellTiter-Glo luciferase-based ATP detection assay (Promega) following the manufactures's protocol after 72 hours incubation. IC50 determinations were performed using GraphPad Prism software (GraphPad, Inc., San Diego, Calif.).
as §3, with “Alternatively: Colorectal” for “Colorectal”, “line KM12” for “lines KM 12”, “penicillin/streptomycin. […]” for “penicillin/streptomycin.”

[4] = tested on: Essential thrombocythemia cell line SET-2 cells (harboring endogenous JAK2 point mutation); test: SET-2 cell proliferation assay (CellTiter-Glo); format: cell-based; settings: Homo sapiens, 72 hours incubation, read-out: SET2 cell proli. IC50
[5] = tested on: T cell lymphoma Karpas-299 cell line (harboring endogenous NPM-ALK fusion gene); test: Karpas-299 cell proliferation assay (CellTiter-Glo); format: cell-based; settings: Homo sapiens, 72 hours incubation, read-out: Karpas 299 cell proli. IC50
[6] = target: JAK2 (Homo sapiens (Human), UniProt O60674); test: KINOMEscan kinase binding assay (DiscoveRx)
JAK2, sequence (O60674 whole entry): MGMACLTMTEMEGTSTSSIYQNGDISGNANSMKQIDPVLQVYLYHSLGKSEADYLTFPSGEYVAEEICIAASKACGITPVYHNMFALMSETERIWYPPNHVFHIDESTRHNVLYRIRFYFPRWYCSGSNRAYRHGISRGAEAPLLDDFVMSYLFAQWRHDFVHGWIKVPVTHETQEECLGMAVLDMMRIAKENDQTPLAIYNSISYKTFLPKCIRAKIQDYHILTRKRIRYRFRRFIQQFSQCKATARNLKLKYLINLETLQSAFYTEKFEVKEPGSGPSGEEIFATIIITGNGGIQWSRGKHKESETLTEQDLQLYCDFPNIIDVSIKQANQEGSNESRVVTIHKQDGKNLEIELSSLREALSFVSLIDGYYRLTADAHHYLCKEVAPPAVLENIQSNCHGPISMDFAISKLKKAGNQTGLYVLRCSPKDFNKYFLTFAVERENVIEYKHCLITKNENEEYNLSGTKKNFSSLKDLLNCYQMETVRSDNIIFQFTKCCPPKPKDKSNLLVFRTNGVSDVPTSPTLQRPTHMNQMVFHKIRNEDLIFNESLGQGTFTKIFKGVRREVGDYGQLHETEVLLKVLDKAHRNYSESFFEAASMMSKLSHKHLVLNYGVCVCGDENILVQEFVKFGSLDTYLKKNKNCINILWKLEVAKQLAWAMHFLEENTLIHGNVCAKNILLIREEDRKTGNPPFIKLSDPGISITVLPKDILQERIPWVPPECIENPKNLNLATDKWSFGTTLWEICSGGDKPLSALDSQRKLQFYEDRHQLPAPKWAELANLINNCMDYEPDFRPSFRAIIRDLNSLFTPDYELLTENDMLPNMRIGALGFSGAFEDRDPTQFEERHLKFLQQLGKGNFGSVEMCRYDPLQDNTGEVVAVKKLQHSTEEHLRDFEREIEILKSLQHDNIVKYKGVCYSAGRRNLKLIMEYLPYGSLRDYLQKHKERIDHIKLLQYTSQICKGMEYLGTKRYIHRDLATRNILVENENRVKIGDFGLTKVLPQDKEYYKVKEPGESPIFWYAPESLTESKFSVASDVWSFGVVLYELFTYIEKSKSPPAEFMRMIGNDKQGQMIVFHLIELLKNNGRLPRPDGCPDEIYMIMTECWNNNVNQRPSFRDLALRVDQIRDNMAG
Protocol: as §1

[7] = target: TRKA (Homo sapiens (Human), UniProt P04629); test: KINOMEscan kinase binding assay (DiscoveRx)
TRKA, sequence (P04629 33-796): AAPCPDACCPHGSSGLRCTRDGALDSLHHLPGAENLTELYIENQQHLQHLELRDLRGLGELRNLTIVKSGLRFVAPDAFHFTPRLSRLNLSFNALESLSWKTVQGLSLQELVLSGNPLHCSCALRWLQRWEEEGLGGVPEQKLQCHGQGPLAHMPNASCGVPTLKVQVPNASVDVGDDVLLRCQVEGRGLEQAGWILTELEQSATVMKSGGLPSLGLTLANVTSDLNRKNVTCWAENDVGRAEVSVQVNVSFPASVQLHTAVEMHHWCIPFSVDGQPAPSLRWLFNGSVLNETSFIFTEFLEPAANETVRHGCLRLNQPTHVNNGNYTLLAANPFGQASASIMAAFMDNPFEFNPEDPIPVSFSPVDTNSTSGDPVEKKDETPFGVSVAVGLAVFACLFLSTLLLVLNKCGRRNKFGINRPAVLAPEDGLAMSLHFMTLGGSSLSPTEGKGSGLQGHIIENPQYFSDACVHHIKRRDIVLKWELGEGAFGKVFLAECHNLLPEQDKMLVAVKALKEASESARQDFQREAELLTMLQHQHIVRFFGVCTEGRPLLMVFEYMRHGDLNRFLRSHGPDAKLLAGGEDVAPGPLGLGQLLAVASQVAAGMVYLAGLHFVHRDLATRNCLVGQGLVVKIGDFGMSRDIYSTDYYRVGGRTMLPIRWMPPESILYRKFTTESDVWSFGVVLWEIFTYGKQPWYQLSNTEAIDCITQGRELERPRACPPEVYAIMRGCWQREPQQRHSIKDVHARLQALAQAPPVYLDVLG
Protocol: as §2

ALK, sequence (Q9UM73 19-1620): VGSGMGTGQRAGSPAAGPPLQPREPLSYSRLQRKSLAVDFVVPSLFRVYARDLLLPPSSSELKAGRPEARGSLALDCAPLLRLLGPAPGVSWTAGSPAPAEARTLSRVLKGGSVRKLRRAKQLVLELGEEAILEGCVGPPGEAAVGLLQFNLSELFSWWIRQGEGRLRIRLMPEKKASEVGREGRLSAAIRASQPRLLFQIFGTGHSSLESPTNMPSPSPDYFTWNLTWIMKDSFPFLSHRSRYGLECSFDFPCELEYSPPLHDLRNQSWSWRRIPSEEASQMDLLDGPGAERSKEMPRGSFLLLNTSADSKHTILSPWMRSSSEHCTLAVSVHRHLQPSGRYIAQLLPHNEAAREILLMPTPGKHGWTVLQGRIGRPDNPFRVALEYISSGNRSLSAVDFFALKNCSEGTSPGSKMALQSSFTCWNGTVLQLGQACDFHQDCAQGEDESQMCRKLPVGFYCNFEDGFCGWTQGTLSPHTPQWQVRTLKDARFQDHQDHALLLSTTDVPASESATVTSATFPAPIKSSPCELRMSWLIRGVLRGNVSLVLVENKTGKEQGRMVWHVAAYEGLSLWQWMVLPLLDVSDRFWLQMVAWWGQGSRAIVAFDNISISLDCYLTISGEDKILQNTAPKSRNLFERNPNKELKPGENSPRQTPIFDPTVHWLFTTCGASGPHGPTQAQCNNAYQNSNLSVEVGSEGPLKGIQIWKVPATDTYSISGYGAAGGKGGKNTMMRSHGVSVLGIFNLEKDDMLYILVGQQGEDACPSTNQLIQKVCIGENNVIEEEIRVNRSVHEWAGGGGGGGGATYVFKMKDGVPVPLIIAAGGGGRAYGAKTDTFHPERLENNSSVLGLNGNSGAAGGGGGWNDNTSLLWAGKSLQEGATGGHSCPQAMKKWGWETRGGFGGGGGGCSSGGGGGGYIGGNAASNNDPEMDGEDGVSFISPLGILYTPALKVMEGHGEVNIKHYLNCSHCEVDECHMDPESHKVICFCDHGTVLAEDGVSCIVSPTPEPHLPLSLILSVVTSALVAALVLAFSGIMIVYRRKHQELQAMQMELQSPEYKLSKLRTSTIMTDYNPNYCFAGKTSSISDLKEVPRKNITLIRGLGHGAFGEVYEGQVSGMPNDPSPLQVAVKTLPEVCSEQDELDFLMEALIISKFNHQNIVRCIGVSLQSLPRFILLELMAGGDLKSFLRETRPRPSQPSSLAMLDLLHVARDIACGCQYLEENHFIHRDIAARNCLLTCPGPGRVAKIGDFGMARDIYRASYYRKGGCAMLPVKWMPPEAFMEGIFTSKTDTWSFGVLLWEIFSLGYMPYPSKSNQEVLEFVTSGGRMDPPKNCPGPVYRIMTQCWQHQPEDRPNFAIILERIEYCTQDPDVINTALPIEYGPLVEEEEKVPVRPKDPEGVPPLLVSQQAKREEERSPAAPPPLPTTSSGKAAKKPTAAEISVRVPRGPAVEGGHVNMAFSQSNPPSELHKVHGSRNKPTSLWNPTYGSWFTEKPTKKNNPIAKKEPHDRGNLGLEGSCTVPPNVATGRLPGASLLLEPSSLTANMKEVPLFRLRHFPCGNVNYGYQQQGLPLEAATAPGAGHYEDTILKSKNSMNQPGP

| Compound | Kd [1] [nM] | Kd [2] [nM] | IC50 [5] [nM] | Kd [6] [nM] | Kd [7] [nM] | IC50 [3] [nM] | IC50 [4] [nM] |
| --- | --- | --- | --- | --- | --- | --- | --- |
| Cc1nn2ccc3nc2c1C(=O)NCCOc1ccc(F)cc1CN3C [Example 40, 11-fluoro-3,14-dimethyl-6,7,13,14-tetrahydro-1,15-ethenopyrazolo[4,3-f][1,4,8,10]benzoxatriazacyclotridecin-4(5H)-one] | 600 | 410 | > 10000 |  |  | 204 | > 10000 |
| CC1Nc2ccn3ncc(c3n2)C(=O)NCCOc2ccc(F)c(Cl)c21 (stereo not drawn) [Example 52, 12-chloro-11-fluoro-13-methyl-6,7,13,14-tetrahydro-1,15-ethenopyrazolo[4,3-f][1,4,8,10]benzoxatriazacyclotridecin-4(5H)-one] | 270 | 62 | 7800 |  | 6.5 | 52 | 3600 |
| CN1Cc2cc(F)ccc2OCCNC(=O)c2cnc3ccc1nn23 [Example 42, 10-fluoro-7-methyl-7,8,15,16-tetrahydro-3,6-ethenoimidazo[5,1-f][1,4,7,8,10]benzoxatetraazacyclotridecin-17(14H)-one] |  |  | 3400 |  | 0.088 | 4 | 2000 |
| CC(C)N1Cc2cc(F)ccc2OCCNC(=O)c2cnn3ccc1nc23 [Example 45, 11-fluoro-14-(propan-2-yl)-6,7,13,14-tetrahydro-1,15-ethenopyrazolo[4,3-f][1,4,8,10]benzoxatriazacyclotridecin-4(5H)-one] |  |  | > 10000 | 7.8 | 0.082 | 0.35 | 8000 |
| CN1Cc2c(ccc(F)c2Cl)OCCNC(=O)c2cnn3ccc1nc23 [Example 39, 12-chloro-11-fluoro-14-methyl-6,7,13,14-tetrahydro-1,15-ethenopyrazolo[4,3-f][1,4,8,10]benzoxatriazacyclotridecin-4(5H)-one] | 180 | 4.7 | 3800 | 27 | 0.23 | 3.8 | 8800 |
| O=C1NCCOc2ccc(F)cc2CNc2ccn3ncc1c3n2 [Example 50, 11-fluoro-6,7,13,14-tetrahydro-1,15-ethenopyrazolo[4,3-f][1,4,8,10]benzoxatriazacyclotridecin-4(5H)-one] |  |  | 4100 | 0.57 | 0.2 | 74 | 6000 |
| C[C@@H]1COc2ccc(F)cc2CN(C)c2ccn3ncc(c3n2)C(=O)N1 [Example 95, (6R)-11-fluoro-6,14-dimethyl-6,7,13,14-tetrahydro-1,15-ethenopyrazolo[4,3-f][1,4,8,10]benzoxatriazacyclotridecin-4(5H)-one] |  |  | 4110 |  |  | 0.4 | 2670 |
| CN1Cc2cc(F)ccc2OCCCNC(=O)c2cnn3ccc1nc23 [Example 75, 12-fluoro-15-methyl-5,6,7,8,14,15-hexahydro-4H-1,16-ethenopyrazolo[4,3-g][1,5,9,11]benzoxatriazacyclotetradecin-4-one] |  |  | 3900 | 6.5 | 0.015 | 0.6 | 4440 |
| CC1COc2ccc(F)cc2CN(C)c2ccn3ncc(c3n2)C(=O)N1 (stereo not drawn) [Example 48, 11-fluoro-6,14-dimethyl-6,7,13,14-tetrahydro-1,15-ethenopyrazolo[4,3-f][1,4,8,10]benzoxatriazacyclotridecin-4(5H)-one] |  |  | 6000 |  |  | 62 | 6000 |
| CN1Cc2ccccc2OCCNC(=O)c2cnn3ccc1nc23 [Example 49, 14-methyl-6,7,13,14-tetrahydro-1,15-ethenopyrazolo[4,3-f][1,4,8,10]benzoxatriazacyclotridecin-4(5H)-one] |  |  | 3900 | 24 | 0.14 | 6.7 | 7000 |
| CC1Oc2ccn3ncc(c3n2)C(=O)NCCOc2ccc(F)c(Cl)c21 (stereo not drawn) [Example 11-1, 12-chloro-11-fluoro-13-methyl-6,7-dihydro-13H-1,15-ethenopyrazolo[4,3-f][1,10,4,8] benzodioxadiazacyclotridecin-4(5H)-one] | > 30000 | 1900 | > 10000 |  | 1900 | > 10000 | > 10000 |

Stronger by IC50 [5], values ahead:

| Kd [1] [nM] | Kd [2] [nM] | IC50 [5] [nM] | Kd [6] [nM] | Kd [7] [nM] | Compound | IC50 [3] [nM] | IC50 [4] [nM] |
| --- | --- | --- | --- | --- | --- | --- | --- |
| 14 |  | 281 | 0.74 |  | O=C1NCCOc2ccc(F)cc2C(CO)Nc2ccn3ncc1c3n2 (stereo not drawn) [Example 98, 11-fluoro-13-(hydroxymethyl)-6,7,13,14-tetrahydro-1,15-ethenopyrazolo[4,3-f][1,4,8,10]benzoxatriazacyclotridecin-4(5H)-one] | 7.4 | 808 |
| 28 |  | 1960 | 1.9 |  | O=C1NCCCOc2ccc(F)cc2CCc2ccn3ncc1c3n2 [Example 103, 12-fluoro-5,6,7,8,14,15-hexahydro-4H-1,16-ethenopyrazolo[4,3-g][1,5,9]benzoxadiazacyclotetradecin-4-one] | 15 | > 10000 |
|  |  | 2800 | 3.7 | 0.086 | CCN1Cc2cc(F)ccc2OCCNC(=O)c2cnn3ccc1nc23 [Example 43, 14-ethyl-11-fluoro-6,7,13,14-tetrahydro-1,15-ethenopyrazolo[4,3-f][1,4,8,10]benzoxatriazacyclotridecin-4(5H)-one] | 2.6 | 1700 |
|  |  | 1590 |  |  | [2H]C1([2H])NC(=O)c2cnn3ccc(nc23)N(C)Cc2cc(F)ccc2OC1([2H])[2H] [Example 87, 11-fluoro-14-methyl(6,6,7,7-^2H4)-6,7,13,14-tetrahydro-1,15-ethenopyrazolo[4,3-f][1,4,8,10]benzoxatriazacyclotridecin-4(5H)-one] | 0.3 | 2730 |
|  |  | 1650 |  |  | C[C@H]1Nc2ccn3ncc(c3n2)C(=O)NC[C@@H](O)COc2ccc(F)cc21 [Example 90, (7R,14R)-12-fluoro-7-hydroxy-14-methyl-5,6,7,8,14,15-hexahydro-4H-1,16-ethenopyrazolo[4,3-g][1,5,9,11]benzoxatriazacyclotetradecin-4-one] | 1.8 | 5910 |
|  |  | 506 |  |  | O=C1NCCCOc2ccc(F)cc2C(CO)Nc2ccn3ncc1c3n2 (stereo not drawn) [Example 99, 12-fluoro-14-(hydroxymethyl)-5,6,7,8,14,15-hexahydro-4H-1,16-ethenopyrazolo[4,3-g][1,5,9,11]benzoxatriazacyclotetradecin-4-one] | 6.3 | 6850 |
|  |  | 1400 |  |  | O=C1NCCOc2ccc(F)cc2C(CC2CC2)Nc2ccn3ncc1c3n2 (stereo not drawn) [Example 89, 13-(cyclopropylmethyl)-11-fluoro-6,7,13,14-tetrahydro-1,15-ethenopyrazolo[4,3-f][1,4,8,10]benzoxatriazacyclotridecin-4(5H)-one] | 0.2 | 859 |
|  |  | 961 |  |  | C[C@H]1Nc2ccn3ncc(c3n2)C(=O)NC[C@H](O)COc2ccc(F)cc21 [Example 91, (7S,14R)-12-fluoro-7-hydroxy-14-methyl-5,6,7,8,14,15-hexahydro-4H-1,16-ethenopyrazolo[4,3-g][1,5,9,11]benzoxatriazacyclotetradecin-4-one] | 1.8 | 1540 |
|  |  | 3130 |  |  | O=C1NCCOc2ccc(F)cc2C(c2ccccc2)Nc2ccn3ncc1c3n2 (stereo not drawn) [Example 88, 11-fluoro-13-phenyl-6,7,13,14-tetrahydro-1,15-ethenopyrazolo[4,3-f][1,4,8,10]benzoxatriazacyclotridecin-4(5H)-one] | 50.4 | 1900 |
